From US20180008587A1, “THIOHYDANTOIN ANDROGEN RECEPTOR ANTAGONISTS FOR THE TREATMENT OF CANCER” (Jaressen Pharmaceutica NV, priority 2016, published 2018)
Changes are numbered by the printed parent chain. Several values for one entry are separate records, joined by “and”; a condition that tells them apart may be missing. Equal values may be shown once. Read-outs that look alike come from different tables or passages of the source.

Legend:
[1] = system: androgen dependent signaling; experiment: Hershberger assay; type: in vivo, rat; settings: 3 mg/kg orally QD 10 days with testosterone propionate 0.4 mg/kg; castrated rats; mean ± SD (n=6)
Method: The effect of AR antagonists on androgen dependent signaling in vivo was assessed using the Hershberger assay. In this assay, peripubertal castrated male Sprague-Dawley rats were administered AR antagonists described herein in the presence of testosterone (0.4 mg/kg testosterone propionate) and the weights of androgen dependent organs measured. Dosing was continued for 10 days and measurements taken 24 h after the last dose. The extent of antagonism of AR and consequent inhibition of organ growth was evaluated by comparison to the castration control. Compounds of Formula (I) were dosed orally QD and an endpoint assessment made by change in weight of 5 androgen sensitive organs (ASO): Paired Cowper's Glands (CG), Seminal Vesicles with Fluids and Coagulating Glands (SVCG), Glans Penis (GP), Ventral Prostate (VP) and Levator Ani-Bulbocavernosus Complex (LABC)). According to assay guidelines, statistically significant suppression of ASO is required in 2 of 5 organs for a compound to be classified as an anti-androgen (analysis was performed by t-test/Mann-Whitney).
Compounds defined herein were administered at the indicated dose (mg/kg) and flutamide (FT), positive control, at 3 mg/kg. All compounds were co-administered with testosterone propionate (TP, 0.4 mg/kg) which was also administered alone, untreated control, (castrated only rats served as the control for complete androgen blockade). A statistically significant change in ASO achieved in at least 2 of 5 organs was indicative of an active compound.

[2] = biological target: T1, wild-type Androgen Receptor (AR-wt) (Homo sapiens, UniProt P10275); experiment: LNCaP-AR-wt ANT reporter assay (ARE firefly luciferase, antagonist mode); type: cell-based; settings: for IC50: antagonist mode, 400 pM R-1881 challenge, −Log10(IC50 [Molar]), read-out: LNCaP-AR-wt ANT pIC50 (converted); for Emax: read-out: LNCaP-AR-wt ANT MAX % Inh
T1 construct: expressed in transfected cells; host or cells: LNCaP (LNCaP AR (cs))
T1 sequence (P10275 1-920): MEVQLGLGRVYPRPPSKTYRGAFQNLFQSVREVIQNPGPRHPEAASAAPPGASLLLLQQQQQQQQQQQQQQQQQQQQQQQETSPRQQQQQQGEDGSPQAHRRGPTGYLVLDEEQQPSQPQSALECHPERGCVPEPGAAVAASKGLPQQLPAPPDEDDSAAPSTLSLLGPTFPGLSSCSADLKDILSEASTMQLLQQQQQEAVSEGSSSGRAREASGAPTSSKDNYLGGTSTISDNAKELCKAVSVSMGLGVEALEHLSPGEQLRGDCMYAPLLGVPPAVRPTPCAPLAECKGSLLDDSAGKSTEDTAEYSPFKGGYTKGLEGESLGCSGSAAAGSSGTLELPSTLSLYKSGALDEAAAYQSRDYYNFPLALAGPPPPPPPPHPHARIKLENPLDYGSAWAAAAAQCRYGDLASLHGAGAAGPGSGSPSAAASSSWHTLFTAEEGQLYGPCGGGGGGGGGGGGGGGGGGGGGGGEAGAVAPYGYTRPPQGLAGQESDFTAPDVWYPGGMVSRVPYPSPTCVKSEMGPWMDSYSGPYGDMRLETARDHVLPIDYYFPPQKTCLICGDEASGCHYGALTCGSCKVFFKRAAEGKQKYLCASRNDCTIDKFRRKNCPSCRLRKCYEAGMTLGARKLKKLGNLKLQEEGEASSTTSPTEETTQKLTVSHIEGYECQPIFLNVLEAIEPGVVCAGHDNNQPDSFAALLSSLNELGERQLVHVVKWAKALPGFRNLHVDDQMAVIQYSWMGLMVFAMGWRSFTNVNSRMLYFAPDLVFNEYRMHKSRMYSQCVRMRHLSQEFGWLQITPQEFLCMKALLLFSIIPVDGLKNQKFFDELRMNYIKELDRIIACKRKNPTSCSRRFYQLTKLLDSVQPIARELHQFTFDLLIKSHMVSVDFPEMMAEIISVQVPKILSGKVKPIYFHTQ
How it was run: (§1)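 Cells: stable LNCaP pools, AR-wt or AR-F876L, in charcoal-stripped serum. Agonist challenge for antagonist mode was 400 pM (WT) and 600 pM (F876L). Luminescence was measured after 20-24 h incubation.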

[3] = biological target: T1, wild-type Androgen Receptor (AR-wt); experiment: LNCaP-AR-wt AG reporter assay (ARE firefly luciferase, agonist mode); type: cell-based; settings: for Emax: read-out: LNCaP-AR-wt AG MAX % Stim
How it was run: (§2)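 Read-out is luciferase luminescence taken 1 h after Steady-Glo addition, following 20-24 h compound exposure at 37 °C in LNCaP pools stably carrying wild-type or F876L AR. Cells were grown in charcoal-stripped serum. Antagonist wells received agonist at 400 pM (WT) or 600 pM (F876L).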

[4] = biological target: T2, F876L mutant Androgen Receptor (AR-F876L) (Homo sapiens, UniProt P10275, F877L); experiment: LNCaP-AR-F876L ANT reporter assay (ARE firefly luciferase, antagonist mode); type: cell-based; settings: for Emax: read-out: LNCaP-AR-F876L ANT MAX % Inh
T2 construct: expressed in transfected cells; host or cells: LNCaP (LNCaP F876L)
T2 sequence (P10275 1-920 F877L): T1 sequence (P10275 1-920) with F877L
How it was run: as §1

[5] = biological target: T2, F876L mutant Androgen Receptor (AR-F876L); experiment: LNCaP-AR-F876L AG reporter assay (ARE firefly luciferase, agonist mode); type: cell-based; settings: for Emax: read-out: LNCaP-AR-F876L AG MAX % Stim
How it was run: as §2

[6] = maximum % inhibition of R1881 control response over tested concentration range
[7] = agonist mode, −Log10(EC50 [Molar]), read-out: LNCaP-AR-wt AG pEC50 (converted)
[8] = maximum % stimulation (agonist response) over tested concentration range
[9] = read-out: LNCaP-AR-F876L ANT pIC50 (converted)
[10] = agonist mode, −Log10(EC50 [Molar]), read-out: LNCaP-AR-F876L AG pEC50 (converted)

| SMILES | ASO Organ Growth (% of TP control) SVCG [1] | ASO Organ Growth (% of TP control) VP [1] | IC50 [2] [nM] | Emax [2, 6] [%] | EC50 [3, 7] [nM] | Emax [3, 8] [%] | Emax [4, 6] [%] | IC50 [4, 9] [nM] | EC50 [5, 10] [nM] | Emax [5, 8] [%] | Emax [2] [%] | EC50 [3] [nM] | Emax [3] [%] | Emax [4] [%] | EC50 [5] [nM] | Emax [5] [%] | IC50 [4] [nM] |
| --- | --- | --- | --- | --- | --- | --- | --- | --- | --- | --- | --- | --- | --- | --- | --- | --- | --- |
| CC(C)C(=O)Nc1ccc([N+](=O)[O-])c(C(F)(F)F)c1 [Flutamide, flutamide, reference compound] | 22.5 ± 22.9 % of TP control and 16.6 ± 16.3 % of TP control | 31.1 ± 29.2 % of TP control and 24.4 ± 35.5 % of TP control | – | – | – | – | – | – | – | – | – | – | – | – | – | – | – |
| Cc1cc(N2C(=O)C3(CCC3)N(c3ccc(C(=O)Nc4ccnn4C)c(F)c3)C2=S)cnc1C#N [Cpd 45, 4-[6-(6-cyano-5-methyl-3-pyridyl)-5-oxo-7-thioxo-6,8-diazaspiro[3.4]octan-8-yl]-2-fluoro-N-(2-methylpyrazol-3-yl)benzamide] | – | – | 1020 | 101 | > 15100 | 0.2 | 100 | 437 | > 15100 | 0.1 | – | – | – | – | – | – | – |
| CCN1CCC(Oc2ccc(N3C(=S)N(c4cnc(C#N)c(C)c4)C(=O)C34CCC4)cc2)CC1 [Cpd 61, 5-[8-[4-[(1-ethyl-4-piperidyl)oxy]phenyl]-5-oxo-7-thioxo-6,8-diazaspiro[3.4]octan-6-yl]-3-methyl-pyridine-2-carbonitrile] | – | – | 1260 | 100 | > 15100 | 1.1 | 100 | 380 | > 15100 | 0.7 | – | – | – | – | – | – | – |
| CNC(=O)c1ccc(N2C(=S)N(c3cnc(C#N)c(C)c3)C(=O)C23CCC3)cc1F [Cpd 16, 4-[6-(6-cyano-5-methyl-3-pyridyl)-5-oxo-7-thioxo-6,8-diazaspiro[3.4]octan-8-yl]-2-fluoro-N-methyl-benzamide] | – | – | 631 | 99.2 | > 15100 | 0.3 | 98.7 | 269 | > 15100 | 0 | – | – | – | – | – | – | – |
| N#Cc1ncc(N2C(=O)C3(CCC3)N(c3ccc(Oc4ccncn4)cc3)C2=S)cc1C(F)(F)F [Cpd 71, 5-[5-oxo-8-(4-pyrimidin-4-yloxyphenyl)-7-thioxo-6,8-diazaspiro[3.4]octan-6-yl]-3-(trifluoromethyl)pyridine-2-carbonitrile] | – | – | 214 | – | – | – | – | 251 | – | – | 98.8 | > 15100 | 0.5 | 97.5 | > 15100 | 0.9 | – |
| Cc1cc(N2C(=O)C3(CCC3)N(c3ccc(OC4CCSCC4)cc3)C2=S)cnc1C#N [Cpd 13, 3-methyl-5-[5-oxo-8-(4-tetrahydrothiopyran-4-yloxyphenyl)-7-thioxo-6,8-diazaspiro[3.4]octan-6-yl]pyridine-2-carbonitrile] | – | – | 407 | 102 | > 15100 | 0.4 | 101 | 229 | > 15100 | 0.1 | – | – | – | – | – | – | – |
| N#Cc1ncc(N2C(=O)C3(CCC3)N(c3ccc(C(=O)NCCCN4CCCC4)c(F)c3)C2=S)cc1C(F)(F)F [Cpd 118, 4-[6-[6-cyano-5-(trifluoromethyl)-3-pyridyl]-5-oxo-7-thioxo-6,8-diazaspiro[3.4]octan-8-yl]-2-fluoro-N-(3-pyrrolidin-1-ylpropyl)benzamide] | – | – | 1100 | 101 | > 15100 | 0.4 | 99.4 | 158 | > 15100 | 3.9 | – | – | – | – | – | – | – |
| N#Cc1ncc(N2C(=O)C3(CCC3)N(c3cccc4ccccc34)C2=S)cc1C(F)(F)F [Cpd 34, 5-[8-(1-naphthyl)-5-oxo-7-thioxo-6,8-diazaspiro[3.4]octan-6-yl]-3-(trifluoromethyl)pyridine-2-carbonitrile] | – | – | 562 | – | – | – | – | 617 | – | – | 99.7 | > 15100 | -0.1 | 99.4 | > 15100 | 0.2 | – |
| Cc1cc(N2C(=O)C3(CCC3)N(c3ccc(C(=O)Nc4cncc(F)c4)c(F)c3)C2=S)cnc1C#N [Cpd 113, 4-[6-(6-cyano-5-methyl-3-pyridyl)-5-oxo-7-thioxo-6,8-diazaspiro[3.4]octan-8-yl]-2-fluoro-N-(5-fluoro-3-pyridyl)benzamide] | – | – | 1170 | 97.4 | > 15100 | 25.3 | 98.2 | 871 | > 15100 | 3.1 | – | – | – | – | – | – | – |
| Cc1cc(N2C(=O)C3(CCC3)N(c3ccc(Oc4ccncn4)cc3)C2=S)cnc1C#N [Cpd 62, 3-methyl-5-[5-oxo-8-(4-pyrimidin-4-yloxyphenyl)-7-thioxo-6,8-diazaspiro[3.4]octan-6-yl]pyridine-2-carbonitrile] | – | – | 339 | – | – | – | – | – | – | – | 98.8 | > 15100 | 0.8 | 99.7 | > 15100 | 0.4 | 91.2 |
